Columns and labels:
[1] = tested on: Subjects With Relapsing-Remitting Multiple Sclerosis (RRMS); experiment: GALA phase 3 trial (GA 40 mg three times a week vs placebo): response categories and ARR by predictive model; format: in vivo, human
Description: As used herein, “GALA” is a phase 3 clinical trial entitled “A Study in Subjects With Relapsing-Remitting Multiple Sclerosis (RRMS) to Assess the Efficacy, Safety and Tolerability of Glatiramer Acetate (GA) Injection 40 mg Administered Three Times a Week Compared to Placebo (GALA).” The GALA trial has the ClinicalTrials.gov Identifier NCT01067521, and additional information about the trial can be found at clinicaltrials.gov/ct2/show/NCT01067521.
(§1) Response definitions were received from patients from two large glatiramer acetate clinical trial cohorts (GALA, FORTE) and patients were categorized as responder, non-responder, extreme-responder, or extreme non-responder according to the criteria set forth in Table 1.
(§2) To identify genetic markers associated with high response to Copaxone® comprising the following characteristics: (1) high response as measured by ARR reductions, (2) predictive, not prognostic, markers: associated with response only in Copaxone®-treated patients, and not in the placebo group, (3) markers that are confirmed in an independent cohort, and (4) a subset of GALA and FORTE studies' patients with clarly defined response phenotypes (high responders versus low responders) (FIG. 6) Patient DNA samples were genotyped for 4.3 million genetic variants (Illumina HumanOmni5 array).
(§3) Regression analysis was applied, with the threshold for distinguishing responders from non-responders was selected by analysis of receiver-operator curves. Intermediate responders were genotyped by either Illumina 5M array or focused taqman-based SNP genotyping and Sanger sequencing.

[2] = tested on: RRMS subjects; settings: largest controlled study, GA 20 mg; cited from earlier work
[3] = tested on: Relapsing-Remitting Multiple Sclerosis (RR-MS) patients; experiment: FORTE phase 3 trial (two doses of GA): response categories and ARR by predictive model; format: in vivo, human
Source text: As used herein, “FORTE” is a phase 3 clinical trial entitled “Clinical Trial Comparing Treatment of Relapsing-Remitting Multiple Sclerosis (RR-MS) With Two Doses of Glatiramer Acetate (GA).” The FORTE trial has the ClinicalTrials.gov Identifier NCT00337779 and additional information, including study results can be found at clinicaltrials.gov/ct2/show/NCT00337779.
as §1, §2, §3

[4] = tested on: genotyped patients of the GALA and FORTE cohorts; experiment: Combined GALA and FORTE cohorts: patient responses predicted by preliminary predictive model (model 3, threshold 0.71); format: in vivo, human
Description: A predictive model was generated based on the 11 SNPs shown in tables 32 and 33 and the two Clinical co-variants shown in table 23.
Receiver Operating Characteristic (ROC) analysis was performed using the actual value (case or control) and predicted value for each sample from the multi-marker regression model (FIG. 1). For these preliminary analyses, two risk groups were defined using the predicted values from the multi-marker regression model. The predictive threshold value was set at 0.71 (termed “model 3”) based on a variety of factors after consultation with the Teva team and Teva MS clinical experts.
Ultimately, a threshold that best differentiated between responders and non-responders (minimum positive predictive value of 90% or higher) (FIG. 2), while maximizing the number of predicted responders (predicted responders >60%) (FIG. 3) was selected. This threshold also coincided with the lowest p-value of all the thresholds examined (Chi square p-value 6.1×10^−46, odds ratio 19.9) (FIG. 4). The positive predictive value (% of all predicted responders to be true responders) was 91.1%, sensitivity (% of all true responders detected) was 80.2%; specificity (% of all true non-responders classified as non-responders) was 83.1%; and the negative predictive value ([…]) was 65.9%.
While 40% of patients were classified as “predicted non-responders” with an overall response rate of 34% (FIG. 5).

[5] = change in ARR < -1 and new T2 lesions = 0 and relapse free
[6] = change in ARR >= 0 and new T2 lesions >= 1
[7] = change in ARR from previous 2 years < -1
[8] = change in ARR from previous 2 years >= 0

## Glatiramer acetate
[1]; [5]
  Extreme Responders (% of cohort): (8.5%)
[1]; [6]
  Extreme Non-Responders (% of cohort): (10%)
[1]; [7]
  Responders (% of cohort): (26%)
[1]; [8]
  Non-Responders (% of cohort): (16%)
[2]
  relapse rate reduced vs placebo: 32%
[3]; [5]
  Extreme Responders (% of cohort): (16%)
[3]; [6]
  Extreme Non-Responders (% of cohort): (6%)
[3]; [7]
  Responders (% of cohort): (36%)
[3]; [8]
  Non-Responders (% of cohort): (11%)
[4]; 68% vs. 91%
  improvement in response rate, predicted responders vs overall cohort: 34%
[4]; P<10^-40
  improved response rate, predicted responders vs predicted non-responders: 2.7 fold
[4]; human, in vivo
  ARR reduced (improved), predicted responders vs overall patient cohort: 60%
  nrelapse reduced (improved), predicted responders vs overall patient cohort: 58%
[4]; p-value 0.00095
  EDSS progression delayed (improved), predicted responders vs predicted non-responders: 72%
[4]; p-value 0.043
  T1 enhancing lesions at month 12 reduced (improved), predicted responders vs predicted non-responders: 47%
[4]; p-value 0.08
  reduced EDSS progression, predicted responders vs overall cohort: 49%
[4]; p-value 2.2×10^-25
  ARR reduced (improved), predicted responders vs predicted non-responders: 80%
[4]; p-value 7.70×10^-32
  nrelapse reduced (improved), predicted responders vs predicted non-responders: 78%
[4]; predicted non-responders (40% of patients)
  overall response rate: 34%
